Source: PubChem BioAssay AID2060603 (Molecular Pharmacology Branch, DTP, NCI, 2025)
Where “and” joins values, the source holds several entries; their conditions need not be identical. Equal values may be shown once.

System: 422866-222-R5-J1-PDC spheroid viability
Assay: Anticancer human tumor 422866-222-R5-J1-PDC patient-derived pancreatic adenocarcinoma cell line growth inhibition [CLK]
Conditions: spheroids with HUVEC and MSC; for viability, T/C: stronger effect = lower value; active means viability on the fitted dose curve at most 10% of control; inactive means the rest
Text: A high-throughput screen of multi-cell type tumor spheroids was designed to identify active combinations of […] and targeted small molecules. Complex spheroids include a stromal component modeled by human endothelial cells (HUVEC) and fibroblasts modeled by human mesenchymal stem cells (MSCs). The concentration ranges selected for each drug and investigational agent were based upon clinically achievable concentrations if the clinical Cmax of the agent was known.
Compounds. The drugs and investigational agents: cirtuvivint (SM08502; NSC835563), CC-671 (NSC850746), vemurafenib (NSC761431), tapotoclax (NSC804041), sotorasib (NSC818433), adagrasib (NSC831453), MRTX-1133 (NSC836407), BAY2416964 (NSC825713), copanlisib (NSC816437), inavolisib (NSC800729), abemaciclib (NSC768073), osimertinib (NSC779217), entinostat (NSC756642), eltanexor (KPT-8602, NSC794443), venetoclax (NSC766270), ceralasertib (NSC777638), bortezomib (NSC756655), olaparib (NSC753686), talazoparib (NSC767125), alisertib (NSC759677), peposertib (NSC802822), gemcitabine (NSC613327), 5-fluorouracil (NSC19893), SN-38 (NSC673596), oxaliplatin (NSC266046), paclitaxel (NSC125973), and doxorubicin (NSC123127), were obtained from the National Cancer Institute (NCI) Developmental Therapeutics Program Chemical Repository. The FDA-approved anticancer drug set is available from the Developmental Therapeutics Program at https://dtp.cancer.gov/organization/dscb/obtaining/available plates.htm. […] The stock solutions were prepared in dimethyl sulfoxide (DMSO, Sigma-Aldrich, St. Louis, MO, cat. D2650), except for the platinum complexes which were prepared in saline (Quality Biological, Gaithersburg, MD, cat. 114-055-101), at 800-fold the tested concentration and stored at -70 degrees C prior to their use. All drugs and investigational agents were tested over a range starting from a high concentration at or near the clinical Cmax and decreasing in half-log increments. If the clinical Cmax for an agent had not been determined, the highest concentration tested was 10 microM.
Cell Culture. All cells were maintained in an incubator at 37 degrees C and 5% CO2 with 95% humidity. The PDC lines were cultured according to standard operating procedures established by the NCI PDMR. Briefly, all PDCs were thawed and cultured in Matrigel-coated flasks prepared with a working solution of 1X Ham's F-12 nutrient mix, without supplementation (Invitrogen, Waltham, MA, cat. 11765054), 100 U/mL penicillin-streptomycin (Invitrogen, cat. 15140122), and 2.5% Matrigel (Corning Inc., Corning, NY, cat. 354248) for the first three passages. The 947758-054-R-J2-PDC line was cultured in 6B/Colon 1A media, which includes advanced DMEM/F-12 (Thermo Fisher Scientific, cat. 12634028), 10 mM HEPES (Thermo Fisher Scientific, cat. 15630080), 1X GlutaMAX supplement (Thermo Fisher Scientific, cat. 35050061), 0.1 mg/mL primocin (InvivoGen, cat. ant-pm-2), 10% defined fetal bovine serum, heat inactivated (HyClone Laboratories Inc., cat. SH30070.03HI), 1.25 mM N-Acetyl-L-cysteine (Sigma-Aldrich, cat. A9165), 10 mM nicotinamide (Sigma-Aldrich, cat. N0636), 1X B-27 supplement (Thermo Fisher Scientific, cat. 17504044), 1X N-2 supplement (Thermo Fisher Scientific, cat. 17502048), and 10 microM Y-27632 dihydrochloride (Tocris Bioscience, cat. 1254). The 876862-298-R-J1-PDC was cultured in 6E media, which includes all 6B/Colon 1A media components plus 50% L-WRN conditioned media (ATCC, cat. CRL-3276), 50 ng/mL recombinant human EGF recombinant protein (hEGF; Thermo Fisher Scientific, cat. PHG0311), 10 ng/mL recombinant human fibroblast growth factor 10 (hGFG-10; PeproTech, cat. 100-26), 1 ng/mL recombinant human fibroblast growth factor 2 (hFGF-2; PeproTech, cat. 100-18B), and 1 µM prostaglandin E2 (PGE2; Tocris, cat. 2296). The 227483-062-R1-J1-PDC line was cultured in Panc media, containing all 6E components except hFGF-2, with the addition of 500 nM SB-431542 (Selleckchem, cat. S1067) and 10 nM gastrin (Tocris, cat. 3006). […]

[1] = curve of first compound, second compound 0.0316 µM
[2] = curve of first compound, second compound 0.1 µM
[3] = curve of first compound, second compound 0.316 µM
[4] = curve of first compound, second compound 1 µM
[5] = curve of first compound, second compound 3.16 µM
[6] = curve of first compound, second compound 10 µM
[7] = second compound 0.0316 µM, first compound 0.0316 µM
[8] = second compound 0.0316 µM, first compound 0.1 µM
[9] = second compound 0.0316 µM, first compound 0.316 µM
[10] = second compound 0.0316 µM, first compound 1 µM
[11] = second compound 0.0316 µM, first compound 3.16 µM
[12] = second compound 0.0316 µM, first compound 10 µM
[13] = second compound 0.1 µM, first compound 0.0316 µM
[14] = second compound 0.1 µM, first compound 0.1 µM
[15] = second compound 0.1 µM, first compound 0.316 µM
[16] = second compound 0.1 µM, first compound 1 µM
[17] = second compound 0.1 µM, first compound 3.16 µM
[18] = second compound 0.1 µM, first compound 10 µM
[19] = second compound 0.316 µM, first compound 0.0316 µM
[20] = second compound 0.316 µM, first compound 0.1 µM
[21] = second compound 0.316 µM, first compound 0.316 µM
[22] = second compound 0.316 µM, first compound 1 µM
[23] = second compound 0.316 µM, first compound 3.16 µM
[24] = second compound 0.316 µM, first compound 10 µM
[25] = second compound 1 µM, first compound 0.0316 µM
[26] = second compound 1 µM, first compound 0.1 µM
[27] = second compound 1 µM, first compound 0.316 µM
[28] = second compound 1 µM, first compound 1 µM
[29] = second compound 1 µM, first compound 3.16 µM
[30] = second compound 1 µM, first compound 10 µM
[31] = second compound 3.16 µM, first compound 0.0316 µM
[32] = second compound 3.16 µM, first compound 0.1 µM
[33] = second compound 3.16 µM, first compound 0.316 µM
[34] = second compound 3.16 µM, first compound 1 µM
[35] = second compound 3.16 µM, first compound 3.16 µM
[36] = second compound 3.16 µM, first compound 10 µM
[37] = second compound 10 µM, first compound 0.0316 µM
[38] = second compound 10 µM, first compound 0.1 µM
[39] = second compound 10 µM, first compound 0.316 µM
[40] = second compound 10 µM, first compound 1 µM
[41] = second compound 10 µM, first compound 3.16 µM
[42] = second compound 10 µM, first compound 10 µM
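Further: spheroids exposed to agents for seven days before readout.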

C=CC(=O)N1CCN(c2nc(=O)n(-c3c(C)ccnc3C(C)C)c3nc(-c4c(O)cccc4F)c(F)cc23)C(C)C1 (stereo unspecified) + CN1CCN(c2cc(C(=O)Nc3cc4cc(-c5cnn(C)c5)ccc4cn3)ccn2)CC1
< 31.6 nM: IC50 [1] | IC50 [2] | IC50 [3] | IC50 [4] | IC50 [5] | IC50 [6]
active: viability, T/C [31] 4.94% | viability, T/C [32] 5.81% | viability, T/C [33] 5.39% | viability, T/C [34] 6.54% | viability, T/C [35] 6.25% | viability, T/C [36] 7.04% | viability, T/C [37] 0.98% | viability, T/C [38] 0.81% | viability, T/C [39] 0.76% | viability, T/C [40] 0.79% | viability, T/C [41] 0.84% | viability, T/C [42] 2.58%
inactive: viability, T/C [7] 44.6% | viability, T/C [8] 30.4% | viability, T/C [9] 40.1% | viability, T/C [10] 30.5% | viability, T/C [11] 29% | viability, T/C [12] 35.3% | viability, T/C [13] 46.9% | viability, T/C [14] 38.4% | viability, T/C [15] 36.6% | viability, T/C [16] 38.7% | viability, T/C [17] 35.1% | viability, T/C [18] 38.5% | viability, T/C [19] 42.7% | viability, T/C [20] 35.4% | viability, T/C [21] 29.9% | viability, T/C [22] 32.2% | viability, T/C [23] 33.9% | viability, T/C [24] 28.5% | viability, T/C [25] 20.9% | viability, T/C [26] 21.5% | viability, T/C [27] 21.2% | viability, T/C [28] 20.8% | viability, T/C [29] 17.6% | viability, T/C [30] 8.28%

CC(Nc1ccc2c(c1)OCCn1cc(N3C(=O)OCC3C(F)F)nc1-2)C(N)=O (stereo unspecified) + CN1CCN(c2cc(C(=O)Nc3cc4cc(-c5cnn(C)c5)ccc4cn3)ccn2)CC1
active: viability, T/C [37] 2.29% | viability, T/C [38] 1.76% | viability, T/C [39] 2.37% | viability, T/C [40] 1.83% | viability, T/C [41] 3.35% | viability, T/C [42] 2.02%
< 31.6 nM: IC50 [4] | IC50 [5] | IC50 [6]
307 nM: IC50 [3]
inactive: viability, T/C [7] 81.1% | viability, T/C [8] 78.1% | viability, T/C [9] 44.5% | viability, T/C [10] 37.3% | viability, T/C [11] 34% | viability, T/C [12] 27% | viability, T/C [13] 103% | viability, T/C [14] 68.3% | viability, T/C [15] 55.3% | viability, T/C [16] 40.5% | viability, T/C [17] 33.4% | viability, T/C [18] 31.8% | viability, T/C [19] 88.7% | viability, T/C [20] 63.1% | viability, T/C [21] 50% | viability, T/C [22] 42.6% | viability, T/C [23] 36.5% | viability, T/C [24] 34.3% | viability, T/C [25] 27.5% | viability, T/C [26] 29.1% | viability, T/C [27] 25.9% | viability, T/C [28] 22.4% | viability, T/C [29] 21.3% | viability, T/C [30] 18.6% | viability, T/C [31] 9.59% | viability, T/C [32] 11% | viability, T/C [33] 11.1% | viability, T/C [34] 10.5% | viability, T/C [35] 13.8% | viability, T/C [36] 12.3%
265 nM: IC50 [1]
389 nM: IC50 [2]

C=CC(=O)N1CCN(c2nc(=O)n(-c3c(C)ccnc3C(C)C)c3nc(-c4c(O)cccc4F)c(F)cc23)C(C)C1 (stereo unspecified)
inactive: viability, T/C (compound 0.0316 µM) 33% and 35.7% | viability, T/C (compound 0.1 µM) 27% and 28.4% | viability, T/C (compound 0.316 µM) 24.9% and 25.6% | viability, T/C (compound 1 µM) 27.6% and 25.6% | viability, T/C (compound 3.16 µM) 32.8% and 25.4% | viability, T/C (compound 10 µM) 25.2% and 30%
< 31.6 nM: IC50 (curve of compound)
